The results in this text go back to ChEMBL document CHEMBL5244216, “Pyrrole: An insight into recent pharmacological advances with structure activity relationship” (Eur J Med Chem, 2018).

The test relates to Mycobacterium tuberculosis. As to the kind of experiment: Antitubercular activity against Multidrug-resistant Mycobacterium tuberculosis H37Rv assessed as reduction in microbial growth by broth dilution method. Type of test: functional. (In general: Broth dilution looks for growth in wells or tubes with falling amounts of substance.)
Consider `CCOc1cc(C2OC(c3ccc(-n4cccc4)cc3)=NN2C(C)=O)ccc1O` (stereo not given), for which the MIC (as a rule, the smallest concentration in the dilution series that meets the test's criterion for growth inhibition) worked out at 0.2 µg/mL.
Turning to `Cc1ccc(C)n1-c1ccc(C(=O)n2[nH]c(=O)c3ccccc3c2=O)cc1`, the MIC was found to be 0.4 µg/mL.
Under `CC[C@@H](CO)NCCN[C@@H](CC)CO` [ETHAMBUTOL] stands 12.5 µg/mL.
Turning to `NNC(=O)c1ccncc1` [ISONIAZID], the MIC came to 12.5 µg/mL.
In the case of `CO[C@H]1/C=C/O[C@@]2(C)Oc3c(C)c(O)c4c(O)c(c(/C=N/N5CCN(C)CC5)c(O)c4c3C2=O)NC(=O)/C(C)=C\C=C\[C@H](C)[C@H](O)[C@@H](C)[C@@H](O)[C@@H](C)[C@H](OC(C)=O)[C@@H]1C` [RIFAMPIN], the MIC worked out at 25 µg/mL.
